Drawing on ChEMBL document CHEMBL4014263, “Diterpenoids and Lignans from Cephalotaxus fortunei” (J Nat Prod, 2017), this text covers inhibition of growth and IC50 for ten compounds.

As usually defined, the IC50 is the point on the concentration scale where inhibition reaches its midpoint. Low readings indicate inhibition by little substance, high ones a need for much substance.

The subject of test [1] is HL-60. In words: Cytotoxicity against human HL60 cells assessed as growth inhibition at 10 uM by MTT assay relative to control. It is filed as functional. To be noted: read-out: GI.
The test system of test [2] is A549. In words: Cytotoxicity against human A549 cells assessed as growth inhibition at 10 uM by SRB assay relative to control. It is filed as functional. To be noted: read-out: GI. A general note: The SRB assay estimates cell density from bound dye.
Test [3] relates to HL-60. In words: Cytotoxicity against human HL60 cells by MTT assay. In kind it is functional, cell-based. (Formazan colour is commonly taken as a measure of viable cells.)
For test [4], the system named is A549. In words: Cytotoxicity against human A549 cells by SRB assay. In kind it is functional, cell-based.

Take `COc1cc(C[C@@]2(O)C(=O)O[C@@H](c3ccc(O)c(OC)c3)[C@@H]2CO)ccc1O`: the inhibition of growth at 10 µM in the test on HL-60 [1] and in the test on A549 [2] was below 50% each time.

For the compound `C[C@@H]1[C@@H](O)[C@@H]2OC(=O)[C@]13CC[C@@H]1C[C@@H](O)C[C@H](C)C4=C1[C@@H]3[C@@H]2C4=O`, the inhibition of growth at 10 µM with HL-60 [1] and in the test on A549 [2] was below 50% in each case.

As for `Cc1cc(=O)cc2c3c1C[C@@H]1[C@H]4OC(=O)[C@](CC2)([C@H](C)[C@H]4O)[C@]31O`, the inhibition of growth at 10 µM in the test with HL-60 [1] and with A549 [2] was below 50% throughout.

`COc1cc([C@@H]2Oc3cc(OC)c(OC)cc3[C@H]2CO)ccc1O`: the inhibition of growth at 10 µM in the test with HL-60 [1] and in the test with A549 [2] was below 50% each time.

Turning to `Cc1cc(=O)cc2c3c1[C@@H](O)[C@@H]1[C@H]4OC(=O)[C@](CC2)([C@H](C)[C@H]4O)[C@H]31`, the inhibition of growth at 10 µM in the test with HL-60 [1] and in the test on A549 [2] was below 50% in each case.

For the compound `CC(CO)c1cc2c(cc1O)[C@@]1(C)CC[C@H](O)C(C)(C)[C@@H]1CC2=O` (stereo not given in full), the inhibition of growth at 10 µM with HL-60 [1] and with A549 [2] was below 50% each time.

For `C[C@@H]1[C@@H](O)[C@@H]2OC(=O)[C@]13CC[C@@H]1C[C@H](O)C[C@H](C)C4=C1[C@@H]3[C@@H]2C4=O`, the inhibition of growth at 10 µM with HL-60 [1] and in the test on A549 [2] was below 50% each time.

On to `COc1ccc(C[C@@]2(O)C(=O)O[C@@H](c3ccc(OC)c(OC)c3)[C@@H]2CO)cc1OC`, for which the inhibition of growth at 10 µM with HL-60 [1] and with A549 [2] was below 50% each time.

Take `Cc1cc(=O)cc2c3c1C(=O)[C@@H]1[C@H]4OC(=O)[C@](CC2)([C@H](C)[C@H]4O)[C@H]31`: the IC50 in the test on HL-60 [3] came out at 770 nM; in the test on A549 [4], 1130 nM.

Consider `COc1cccc2c1C(=O)c1c(O)c3c(c(O)c1C2=O)C[C@@](O)(C(=O)CO)C[C@@H]3O[C@H]1C[C@H](N)[C@H](O)[C@H](C)O1` [DOXORUBICIN], for which the IC50 in the test on HL-60 [3] came to 31 nM; with A549 [4], 124 nM.
